15 molecules from patent US8822462B2, “Subunit selective NMDA receptor potentiators for the treatment of neurological conditions” (Emory University, priority 2009, dated 2014) can be followed below.

The subject of assay [1] is native NMDA receptor responses in subthalamic neurons. Kind of assay: Patch clamp recording from slices of subthalamic nuclei, pressure-applied NMDA/glycine. It is filed as cell-based.
Assay [2] addresses T1, NR1/NR2A (Homo sapiens, UniProt Q12879).
T1 construct: expressed in transfected cells; host or cells: Xenopus laevis oocytes
The experiment in a line: Two electrode voltage clamp, Xenopus laevis oocytes expressing NR1/NR2A. In kind it is cell-based. The conditions noted are these: at 100 μM; read-out: 2A percent effect at the maximum tested concentration. The method, then: (§1) In the table above, potency is expressed as fitted EC50 value to average composite concentration-effect data constructed from current responses recorded under two electrode voltage clamp from Xenopus laevis oocytes expressing either NR1/NR2A, B, C, or D, GluR1, or GluR6. No effect means less than 20% change in response amplitude at 30 μM of drug.
Background: Two-electrode voltage clamp holds a large cell at a set potential and records current.

For assay [3], the target named is T2, NR1/NR2B (Homo sapiens, UniProt Q05586+Q13224).
T2 construct: expressed in transfected cells; host or cells: Xenopus laevis oocytes
Kind of assay: Two electrode voltage clamp, Xenopus laevis oocytes expressing NR1/NR2B. It is filed as cell-based. To be noted: for activity at 100 µM: read-out: 2B percent effect at the maximum tested concentration. Here is the method: as §1

Assay [4] deals with T3, NR1/NR2C (Homo sapiens, UniProt Q05586+Q14957).
T3 construct: expressed in transfected cells; host or cells: Xenopus laevis oocytes
Kind of assay: Two electrode voltage clamp, Xenopus laevis oocytes expressing NR1/NR2C. In kind it is cell-based. To be noted: for IC50: fitted to composite concentration-effect data, read-out: 2C IC50; for Emax: maximal effect of fit, read-out: 2C Max; for activity at 100 µM: read-out: 2C percent effect at the maximum tested concentration.

For assay [5], the target named is T4, NR1/NR2C (Homo sapiens, UniProt Q14957).
T4 construct: expressed in transfected cells; host or cells: Xenopus laevis oocytes
Described as above. In kind it is cell-based.

Assay [6] relates to recombinant NMDA receptors. The experiment in a line: Voltage and pH dependence of potentiation of recombinant NMDA receptors. In kind it is cell-based. The source says:
FIG. 2A illustrates the subunit-selectivity with which the compounds of Formula A, including a specific compound herein referred to as DIQ-1180, acts on recombinant NMDA receptors. The structure of DIQ-1180 is shown below.
The Hill slope at both receptors for all analogues was greater than 1, consistent with a cooperative effect of binding at two sites.

In assay [7] the target is T5, NR1/NR2D (Homo sapiens, UniProt O15399). Kind of assay: Single channel currents in excised outside-out patches. It is filed as cell-based. On the set-up: expressed in transfected cells. The source says: Values are mean+SEM (n=14-20). […] C is the closed level; broken line is the open level.
Our initial studies varying the compound structure confirm that there are strict requirements for the position and type of substituent on the isoquinoline backbone (see Table 3).
Target sequence in this assay (O15399 28-1336, other chains not shown): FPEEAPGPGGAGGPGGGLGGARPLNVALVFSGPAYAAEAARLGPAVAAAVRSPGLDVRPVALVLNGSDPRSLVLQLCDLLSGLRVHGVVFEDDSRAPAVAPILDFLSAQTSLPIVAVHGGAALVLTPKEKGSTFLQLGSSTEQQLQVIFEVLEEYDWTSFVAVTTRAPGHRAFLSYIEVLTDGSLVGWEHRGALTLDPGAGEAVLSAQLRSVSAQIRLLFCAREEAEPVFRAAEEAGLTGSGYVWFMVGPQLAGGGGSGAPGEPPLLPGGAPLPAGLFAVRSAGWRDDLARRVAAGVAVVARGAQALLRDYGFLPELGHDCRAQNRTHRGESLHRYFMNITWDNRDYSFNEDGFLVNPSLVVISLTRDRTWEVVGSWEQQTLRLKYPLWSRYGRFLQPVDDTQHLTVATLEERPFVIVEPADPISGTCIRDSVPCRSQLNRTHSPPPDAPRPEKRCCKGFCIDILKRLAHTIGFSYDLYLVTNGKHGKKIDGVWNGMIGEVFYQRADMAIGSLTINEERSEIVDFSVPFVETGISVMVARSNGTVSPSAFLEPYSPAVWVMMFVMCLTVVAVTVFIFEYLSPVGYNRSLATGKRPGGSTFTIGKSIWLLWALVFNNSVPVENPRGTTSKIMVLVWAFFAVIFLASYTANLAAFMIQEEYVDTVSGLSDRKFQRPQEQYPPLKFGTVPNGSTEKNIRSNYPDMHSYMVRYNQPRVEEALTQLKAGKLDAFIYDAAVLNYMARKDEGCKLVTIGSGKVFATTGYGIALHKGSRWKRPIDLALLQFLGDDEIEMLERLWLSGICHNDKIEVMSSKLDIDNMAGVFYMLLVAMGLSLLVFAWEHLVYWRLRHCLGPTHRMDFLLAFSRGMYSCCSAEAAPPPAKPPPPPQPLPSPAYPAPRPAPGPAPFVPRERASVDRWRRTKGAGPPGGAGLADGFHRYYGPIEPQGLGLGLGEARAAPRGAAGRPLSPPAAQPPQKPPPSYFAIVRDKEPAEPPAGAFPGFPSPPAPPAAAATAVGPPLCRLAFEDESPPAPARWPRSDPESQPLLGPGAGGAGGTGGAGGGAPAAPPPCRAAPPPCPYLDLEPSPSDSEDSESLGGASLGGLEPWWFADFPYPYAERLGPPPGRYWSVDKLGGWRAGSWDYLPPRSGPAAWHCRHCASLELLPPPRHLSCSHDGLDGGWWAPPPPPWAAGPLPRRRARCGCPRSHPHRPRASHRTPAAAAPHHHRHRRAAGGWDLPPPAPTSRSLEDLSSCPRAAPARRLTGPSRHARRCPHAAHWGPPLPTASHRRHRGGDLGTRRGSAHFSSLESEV

The target in assay [8] is T5, NR1/NR2D. Kind of assay: Two electrode voltage clamp, Xenopus laevis oocytes expressing NR1/NR2D.
Target sequence in this assay (O15399 28-1336, species assumed, other chains not shown): as the sequence (O15399 28-1336, other chains not shown) above
Assay [9] concerns the target NR1/NR2D (Homo sapiens, UniProt O15399+Q05586). The description is as above. To be noted: for Emax: read-out: 2D Max; for activity at 100 µM: read-out: 2D percent effect at the maximum tested concentration, at 100 μM.

T2 sequence (Q13224 27-1484, species assumed, other chains not shown): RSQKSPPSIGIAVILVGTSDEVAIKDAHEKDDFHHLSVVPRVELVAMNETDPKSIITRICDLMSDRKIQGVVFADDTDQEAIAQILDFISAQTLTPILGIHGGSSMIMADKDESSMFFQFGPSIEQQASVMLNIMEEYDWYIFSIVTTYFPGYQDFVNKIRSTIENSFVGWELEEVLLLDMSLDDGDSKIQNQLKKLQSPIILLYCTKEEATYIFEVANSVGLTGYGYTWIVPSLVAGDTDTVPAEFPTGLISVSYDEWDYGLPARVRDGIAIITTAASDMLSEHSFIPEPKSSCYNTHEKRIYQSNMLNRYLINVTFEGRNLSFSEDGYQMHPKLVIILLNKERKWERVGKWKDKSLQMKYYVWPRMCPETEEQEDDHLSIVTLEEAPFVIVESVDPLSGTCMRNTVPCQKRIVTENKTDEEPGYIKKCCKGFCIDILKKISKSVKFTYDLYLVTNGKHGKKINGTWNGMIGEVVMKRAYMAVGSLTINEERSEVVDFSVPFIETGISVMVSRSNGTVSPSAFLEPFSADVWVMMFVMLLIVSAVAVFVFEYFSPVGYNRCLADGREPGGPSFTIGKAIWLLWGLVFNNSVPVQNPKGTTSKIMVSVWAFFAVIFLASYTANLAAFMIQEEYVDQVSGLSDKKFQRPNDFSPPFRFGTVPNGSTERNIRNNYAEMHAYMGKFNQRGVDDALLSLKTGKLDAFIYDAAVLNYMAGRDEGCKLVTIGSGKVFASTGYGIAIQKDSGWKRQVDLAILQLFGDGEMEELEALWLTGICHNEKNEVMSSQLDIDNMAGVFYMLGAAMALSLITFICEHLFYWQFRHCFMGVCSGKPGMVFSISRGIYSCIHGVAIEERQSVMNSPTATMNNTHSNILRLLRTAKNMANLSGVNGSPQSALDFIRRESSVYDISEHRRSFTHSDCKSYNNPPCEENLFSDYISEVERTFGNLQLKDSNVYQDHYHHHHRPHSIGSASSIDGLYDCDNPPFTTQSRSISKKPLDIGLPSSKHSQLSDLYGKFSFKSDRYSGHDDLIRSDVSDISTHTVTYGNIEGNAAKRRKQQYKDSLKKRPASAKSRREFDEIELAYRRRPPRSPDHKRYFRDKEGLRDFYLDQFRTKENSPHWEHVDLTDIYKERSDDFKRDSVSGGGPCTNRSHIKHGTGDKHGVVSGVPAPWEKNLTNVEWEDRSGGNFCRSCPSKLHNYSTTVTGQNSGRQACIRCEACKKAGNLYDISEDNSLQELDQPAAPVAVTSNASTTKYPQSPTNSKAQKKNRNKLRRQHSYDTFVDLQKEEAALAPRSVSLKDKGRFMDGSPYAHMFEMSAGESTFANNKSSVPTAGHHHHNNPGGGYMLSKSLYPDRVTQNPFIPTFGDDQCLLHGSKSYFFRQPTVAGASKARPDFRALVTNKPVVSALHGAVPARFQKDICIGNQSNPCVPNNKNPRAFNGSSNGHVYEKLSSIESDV
NR1/NR2D (Homo sapiens, UniProt O15399+Q05586), sequence (O15399 28-1336, species assumed, other chains not shown): as the sequence (O15399 28-1336, other chains not shown) above
T3 sequence (Q14957 20-1233, species assumed, other chains not shown): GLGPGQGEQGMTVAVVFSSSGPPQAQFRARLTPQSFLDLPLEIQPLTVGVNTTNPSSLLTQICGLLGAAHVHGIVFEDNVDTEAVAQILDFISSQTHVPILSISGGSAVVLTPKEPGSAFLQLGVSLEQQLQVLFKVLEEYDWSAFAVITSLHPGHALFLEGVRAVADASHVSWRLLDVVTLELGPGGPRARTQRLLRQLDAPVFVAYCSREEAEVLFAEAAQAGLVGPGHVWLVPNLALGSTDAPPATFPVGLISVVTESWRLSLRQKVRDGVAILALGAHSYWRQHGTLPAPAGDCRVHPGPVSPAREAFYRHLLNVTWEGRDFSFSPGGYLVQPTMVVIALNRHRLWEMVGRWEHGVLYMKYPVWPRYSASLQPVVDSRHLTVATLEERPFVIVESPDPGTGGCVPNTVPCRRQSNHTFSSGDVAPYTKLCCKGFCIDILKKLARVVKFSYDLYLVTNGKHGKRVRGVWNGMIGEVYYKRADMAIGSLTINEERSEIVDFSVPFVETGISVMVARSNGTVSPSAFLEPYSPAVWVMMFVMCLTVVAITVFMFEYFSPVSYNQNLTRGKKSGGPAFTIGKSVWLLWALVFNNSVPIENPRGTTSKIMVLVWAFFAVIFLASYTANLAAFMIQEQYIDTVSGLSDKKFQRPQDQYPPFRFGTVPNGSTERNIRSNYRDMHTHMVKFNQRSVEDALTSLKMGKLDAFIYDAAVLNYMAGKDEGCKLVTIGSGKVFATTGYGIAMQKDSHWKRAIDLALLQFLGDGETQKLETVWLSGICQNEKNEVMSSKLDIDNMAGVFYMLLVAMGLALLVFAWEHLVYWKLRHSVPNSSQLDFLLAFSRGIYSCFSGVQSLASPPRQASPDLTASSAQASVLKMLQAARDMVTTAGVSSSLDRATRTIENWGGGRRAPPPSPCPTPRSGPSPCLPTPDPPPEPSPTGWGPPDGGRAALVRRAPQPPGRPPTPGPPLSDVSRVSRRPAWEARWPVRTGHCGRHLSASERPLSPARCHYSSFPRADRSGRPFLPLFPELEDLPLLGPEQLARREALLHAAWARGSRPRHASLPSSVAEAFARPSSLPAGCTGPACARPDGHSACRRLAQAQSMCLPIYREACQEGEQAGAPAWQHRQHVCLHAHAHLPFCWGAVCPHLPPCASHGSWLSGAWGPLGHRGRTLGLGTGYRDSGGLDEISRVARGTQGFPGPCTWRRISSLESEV
T4 sequence (Q14957 20-1233, species assumed, other chains not shown): as above

Regarding `NC(CCCP(=O)(O)O)C(=O)O` (racemic) [DL-APV, reference compound], the “current response to pressure-applied NMDA/glycine” value in assay [1] (100 μM) is “blocked”.

By EC50 is commonly meant the concentration needed to bring the measured effect to its halfway point. In general, IC50 refers to the midpoint of a concentration-inhibition curve. `COc1ccc(OCC2c3cc(OC)c(OC)cc3CCN2C(=O)c2ccccc2)cc1` (centres unmarked) [compound 1180]: the activity at 100 µM is 81% in [2] and 67% in [3]. The EC50 in [4] (Example 1, read-out: EC50 value for potentiation of NR2C-containing receptors) came to 11 µM; in assay [9], 13 µM. Moreover, the IC50 in assay [4] came to 12 µM; in assay [9], 11 µM. Besides, the Emax in assay [4] amounted to 145%; in assay [9] it was 156%. Besides, in assay [5] (Example 1), the “maximal potentiation at NR2C-containing receptors” value worked out at 181%. The “current response to pressure-applied NMDA/glycine” value in assay [1] (30 μM, listed as DIQ-1180) is on record as “potentiated”. In addition, the “voltage dependence of potentiating actions” value in assay [6] (n=7) is given as “voltage-independent”. In [6] (n=10-16), the “pH dependence of potentiating actions” value was “pH-independent”. Also, the “total open probability (nPo)” value in [7] (glutamate/glycine-activated unitary currents, increased from 0.083 without compound) is 0.207. Also, in assay [7] (maximally effective glutamate/glycine, FIG. 2B), the “opening frequency of recombinant NR1/NR2D single channel currents” value is recorded as “increased the opening frequency”. The opening frequency in [7] (reversed by washout) is on record as 178 % of control. For the same molecule, the “maximal potentiation at NR2D-containing receptors” value in assay [8] (Example 1) stood at 162%.

Consider `CSC1=NCCN1C(=O)c1ccc2ccccc2c1` [compound 1397], for which, in assay [5] (at 100 μM), the “2C percent effect at the maximum tested concentration” value is reported as 98% at 100 μM. The “2D percent effect at the maximum tested concentration” value in assay [8] (at 100 μM) came to 87% at 100 μM.

Regarding `COC(=O)c1ccc(OCC2c3cc(OC)c(OC)cc3CCN2C(=O)c2cccc(Cl)c2)cc1` (centres unmarked) [compound 1444], the activity at 100 µM was 91% in [2], 68% in assay [3], 102% in assay [4] and 111% in assay [9].

As to `CC(C)(C)c1ccc(C(=O)Nc2ccccc2C(=O)O)cc1` [compound 1479], the activity at 100 µM stood at 94% in assay [2], 97% in assay [3], 102% in assay [4] and 113% in [9].

For `CC(C)(C)c1ccc(NC(=O)C2CC=CCC2C(=O)O)cc1` (centres unmarked) [compound 1480], the activity at 100 µM was found to be 92% in assay [2], 83% in assay [3], 86% in assay [4] and 85% in [9].

Regarding `CC1CCc2c(sc(NC(=O)c3ccc(C(C)(C)C)cc3)c2C(=O)O)C1` (centres unmarked) [compound 1481], the activity at 100 µM in assay [2] worked out at 113%; in assay [3], 119%; in [4] it was 97%. In [9], this molecule gave an IC50 of 21 µM. For the same molecule, the Emax in assay [9] was determined as 124%.

As to `CC(C)(C)c1ccc(C(=O)NC2=C(C(=O)O)C3CCCCCC3S2)cc1` (centres unmarked) [compound 1482], the activity at 100 µM came to 97% in assay [2] and 116% in assay [3]. For the same molecule, the IC50 came out at 19 µM in assay [4] and 16 µM in assay [9]. In addition, the Emax was found to be 127% in assay [4] and 170% in assay [9].

Regarding `COc1ccc(OCC2c3cc(OC)c(OC)cc3CCN2C(=O)c2ccccn2)cc1` (centres unmarked) [compound 1484], the activity at 100 µM in assay [2] amounted to 100%; in [3] it was 80%; in assay [4], 76%; in assay [9], 84%.

Take `COc1ccc(OCC2c3cc(OC)c(OC)cc3CCN2C(=O)c2cccnc2)cc1` (centres unmarked) [compound 1485]: the activity at 100 µM in assay [2] was 75%; in assay [3], 85%; in assay [4], 82%; in assay [9], 74%.

For `COc1ccc(OCC2c3cc(OC)c(OC)cc3CCN2C(=O)c2cccs2)cc1` (centres unmarked) [compound 1486], the activity at 100 µM in assay [2] amounted to 78%; in assay [3], 88%. The IC50 in assay [4] stood at 9 µM; in assay [9], 6 µM. The Emax in [4] came out at 131%; in assay [9], 112%.

With `COc1ccc(OCC2c3cc(OC)c(OC)cc3CCN2S(=O)(=O)c2ccccc2)cc1` (centres unmarked) [compound 1487], the activity at 100 µM in [2] came to 89%; in assay [3], 71%; in [4] it was 69%; in assay [9], 79%.

With `CC(C)c1ccc(C(=O)Nc2sccc2C(=O)O)cc1` [compound 1488], the activity at 100 µM in assay [2] amounted to 98%; in assay [3], 83%; in [4], 82%; in [9], 80%.

On to `CCc1ccc(C(=O)Nc2sccc2C(=O)O)cc1` [compound 1489], for which the activity at 100 µM in [2] was found to be 95%; in assay [3], 78%; in assay [4], 83%; in [9], 76%.

Turning to `CC(C)(C)c1ccc(CSc2nc(N)cc(O)n2)cc1` [compound 1563], in assay [2], the activity at 100 µM was 91%. Moreover, the IC50 was 24 µM in assay [3] (fitted to composite concentration-effect data, Max 0 = inhibition, read-out: 2B IC50); 39 µM in assay [4]; 68 µM in [9]. The results for the Emax in assay [4] and in assay [9] were 424% and 614%, respectively.
